This is an account of results in ChEMBL document CHEMBL1145147, “Cytotoxic neolignans: an SAR study” (Bioorg Med Chem Lett, 2005).

This test relates to HepG2. Put plainly: Cytotoxicity of compound against human liver tumor cell line (Hep-G2) was determined. In kind it is functional, cell-based.
`C/C=C/c1ccc(O)c(-c2cc(/C=C/C)ccc2O)c1` showed an IC50 of 38 µM.
The compound `C=CCc1cc(O)c(O)c(-c2cc(CC=C)cc(O)c2O)c1` yielded an IC50 of 104 µM.
As for `C=CCc1cccc(-c2cccc(CC=C)c2O)c1O`, the IC50 is 42.1 µM.
`C=CCc1cc(OC)c(O)c(-c2cc(CC=C)cc(OC)c2O)c1` returned an IC50 of 117 µM.
Under `C=CCc1ccc(OC)c(-c2cc(CC=C)ccc2OC)c1` stands greater than 200 µM.
`Oc1ccccc1-c1ccccc1O`: the IC50 is greater than 200 µM.
In the case of `CCCc1ccc(O)c(-c2cc(CCC)ccc2O)c1`, the IC50 was found to be 23.4 µM.
`CCCc1ccc(O)c(-c2ccc(O)c(CCC)c2)c1`: the IC50 is 13.1 µM.
Consider `C=CCc1ccc(O)cc1` [CHAVICOL], for which the IC50 was greater than 200 µM.
`C=CCc1ccc(O)c(-c2ccc(O)c(CC=C)c2)c1` [HONOKIOL]: the IC50 amounted to 16.5 µM.
Take `C=CCc1ccc(Oc2cc(CC=C)ccc2O)cc1` [ISOMAGNOLOL]: the IC50 was 51.8 µM.
Under `C=CCc1ccc(O)c(-c2cc(CC=C)ccc2O)c1` [MAGNOLOL] stands 32 µM.
